Experimental findings from patent US9556190B2, “Piperidinyloxy lactone orexin receptor antagonists” (MERCK SHARP & DOHME CORP., priority 2013, dated 2017) are described below.

The target in one assay is hOX1R (Homo sapiens, UniProt O43613). Kind of assay: FLIPR Ca2+ Flux Assay, CHO cells expressing orexin-1 receptor. Format: cell-based. Conditions: 70 pM Ala-6,12 orexin-A agonist.
The next assay addresses human orexin-2 receptor (Homo sapiens (Human), UniProt O43614). Nature of the assay: FLIPR Ca2+ Flux Assay, CHO cells expressing orexin-2 receptor. The class given is cell-based. The settings on record: 70 pM Ala-6,12 orexin-A agonist, read-out: hOX2R FLIPR IC50. Here is the method: The utility of the compounds in accordance with the present invention as orexin receptor OX1R and/or OX2R antagonists may be readily determined without undue experimentation by methodology well known in the art, including the “FLIPR Ca^2+ Flux Assay” (Okumura et al., Biochem. Biophys. Res. Comm. 280:976-981, 2001). In a typical experiment the OX1 and OX2 receptor antagonistic activity of the compounds of the present invention was determined in accordance with the following experimental method. For intracellular calcium measurements, Chinese hamster ovary (CHO) cells expressing the rat orexin-1 receptor or the human orexin-2 receptor, are grown in Iscove's modified DMEM containing 2 mM L-glutamine, […], 1% hypoxanthine-thymidine supplement, 100 U/ml penicillin, 100 μg/ml streptomycin and 10% heat-inactivated fetal calf serum (FCS). The cells are seeded at 20,000 cells/well into Becton-Dickinson black 384-well clear bottom sterile plates coated with poly-D-lysine. All reagents were from GIBCO-Invitrogen Corp. The seeded plates are incubated overnight at 37° C. and 5% CO2. Ala-6,12 human orexin-A as the agonist is prepared as a 1 mM stock solution in 1% bovine serum albumin (BSA) and diluted in assay buffer (HBSS containing 20 mM HEPES, 0.1% BSA and 2.5 mM probenecid, pH7.4) for use in the assay at a final concentration of 70 pM. Test compounds are prepared as 10 mM stock solution in DMSO, then diluted in 384-well plates, first in DMSO, then assay buffer. On the day of the assay, cells are washed 3 times with 100 μl assay buffer and then incubated for 60 min (37° C., 5% CO2) in 60 μl assay buffer containing 1 μM Fluo-4AM ester, 0.02% pluronic acid, and 1% BSA. The dye loading solution is then aspirated and cells are washed 3 times with 100 μl assay buffer. 30 μl of that same buffer is left in each well. Within the Fluorescent Imaging Plate Reader (FLIPR, Molecular Devices), test compounds are added to the plate in a volume of 25 μl, incubated for 5 min and finally 25 μl of agonist is added. Fluorescence is measured for each well at 1 second intervals for 5 minutes and the height of each fluorescence peak is compared to the height of the fluorescence peak induced by 70 pM Ala-6,12 orexin-A with buffer in place of antagonist. For each antagonist, IC50 value (the concentration of compound needed to inhibit 50% of the agonist response) is determined. Alternatively, compound potency can be assessed by a radioligand binding assay (described in Bergman et. al. Bioorg. Med. Chem. Lett. 2008, 18, 1425-1430) in which the inhibition constant (Ki) is determined in membranes prepared from CHO cells expressing either the OX1 or OX2 receptor. The intrinsic orexin receptor antagonist activity of a compound which may be used in the present invention may be determined by these assays.

One may read the IC50 as the midpoint of a concentration-inhibition curve.

human orexin-2 receptor, sequence (O43614 whole entry): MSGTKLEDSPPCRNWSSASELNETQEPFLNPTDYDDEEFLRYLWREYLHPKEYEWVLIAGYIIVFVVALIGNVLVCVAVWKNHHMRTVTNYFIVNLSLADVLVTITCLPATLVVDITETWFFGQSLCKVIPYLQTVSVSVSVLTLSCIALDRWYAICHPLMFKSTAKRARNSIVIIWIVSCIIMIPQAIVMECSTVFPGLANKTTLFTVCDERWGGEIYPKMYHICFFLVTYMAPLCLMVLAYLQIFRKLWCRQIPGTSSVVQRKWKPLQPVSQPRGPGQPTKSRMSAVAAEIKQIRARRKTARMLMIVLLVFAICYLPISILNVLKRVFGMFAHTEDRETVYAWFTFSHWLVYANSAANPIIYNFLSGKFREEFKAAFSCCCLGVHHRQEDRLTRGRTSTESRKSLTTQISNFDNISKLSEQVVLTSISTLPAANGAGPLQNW

`C[C@@H]1CC[C@@H](Oc2nccc3c2C(=O)OC3(C)C)CN1C(=O)c1c(F)cccc1-n1nccn1` [Example 6, 4-(((3R,6R)-1-(2-fluoro-6-(2H-1,2,3-triazol-2-yl)benzoyl)-6-methylpiperidin-3-yl)oxy)-1,1-dimethylfuro[3,4-c]pyridin-3(1H)-one]: the IC50 on hOX1R was found to be 2710 nM; at human orexin-2 receptor, 13 nM.

`C[C@@H]1CC[C@@H](N(C)c2nccc3c2C(=O)OC3(C)C)CN1C(=O)c1ccccc1-n1ncnn1` [Example 45, 1,1-Dimethyl-4-{methyl[(3R,6R)-6-methyl-1-{[2-(2H-tetrazol-2-yl)phenyl]carbonyl}piperidin-3-yl]amino}furo[3,4-c]pyridin-3(1H)-one]: the results for the IC50 on hOX1R and on human orexin-2 receptor were 9330 nM and 127 nM, respectively.

Turning to `C[C@@H]1CC[C@@H](Oc2cccc3c2C(=O)OC3(C)C)CN1C(=O)c1ccccc1-n1nccn1` [Example 38, 3,3-Dimethyl-7-{[(3R,6R)-6-methyl-1-{[2-(2H-1,2,3-triazol-2-yl)phenyl]carbonyl}piperidin-3-yl]oxy}-2-benzofuran-1(3H)-one], the concentration for half-maximal inhibition (IC50) on hOX1R came out at 10000 nM; at human orexin-2 receptor, 169 nM.

Take `COc1ccc(C(=O)N2C[C@H](Oc3nccc4c3C(=O)OC4(C)C)CC[C@H]2C)c(-n2nccn2)c1` [Example 11, 4-{[(3R,6R)-1-{[4-methoxy-2-(2H-1,2,3-triazol-2-yl)phenyl]carbonyl}-6-methylpiperidin-3-yl]oxy}-1,1-dimethylfuro[3,4-c]pyridin-3(1H)-one]: the IC50 on hOX1R was 10000 nM; on human orexin-2 receptor, 147 nM.

Take `C[C@@H]1CC[C@@H](Oc2nccc3c2C(=O)OC3(C)C)CN1C(=O)c1ccccc1-c1ncccn1` [Example 22, 1,1-Dimethyl-4-{[(3R,6R)-6-methyl-1-{[2-(pyrimidin-2-yl)phenyl]carbonyl}piperidin-3-yl]oxy}furo[3,4-c]pyridin-3(1H)-one]: the IC50 at hOX1R worked out at 3260 nM; on human orexin-2 receptor it was 76 nM.

As for `C[C@@H]1CC[C@@H](Nc2nccc3c2C(=O)O[C@@H]3C)CN1C(=O)c1ccccc1-n1nccn1` [Example 47, (1R)-1-methyl-4-{[(3R,6R)-6-methyl-1-{[2-(2H-1,2,3-triazol-2-yl)phenyl]carbonyl}piperidin-3-yl]amino}furo[3,4-c]pyridin-3(1H)-one], the half-maximal inhibitory concentration (IC50) on hOX1R turned out to be 7260 nM; at human orexin-2 receptor, 35 nM.

In the case of `C[C@@H]1CC[C@@H](Oc2nccc3c2COC3=O)CN1C(=O)c1ccccc1-n1ncnn1` [Example 34, 4-{[(3R,6R)-6-methyl-1-{[2-(2H-tetrazol-2-yl)phenyl]carbonyl}-piperidin-3-yl]oxy}-furo[3,4-c]pyridin-1(3H)-one], the IC50 was found to be 10000 nM at hOX1R and 30 nM at human orexin-2 receptor.

On to `C[C@@H]1CC[C@@H](Oc2nccc3c2COC3=O)CN1C(=O)c1cscc1-c1ncccn1` [Example 35, 4-({(3R,6R)-6-methyl-1-[(4-pyrimidin-2-ylthiophen-3-yl)carbonyl]piperidin-3-yl}oxy)furo[3,4-c]pyridin-1(3H)-one], for which the IC50 at hOX1R was found to be 10000 nM; at human orexin-2 receptor it was 20 nM.

On to `Cc1noc(-c2ccc(F)cc2C(=O)N2C[C@H](Oc3nccc4c3C(=O)OC4(C)C)CC[C@H]2C)n1` [Example 18, 4-{[(3R,6R)-1-{[5-fluoro-2-(3-methyl-1,2,4-oxadiazol-5-yl)phenyl]carbonyl}-6-methylpiperidin-3-yl]oxy}-1,1-dimethylfuro[3,4-c]pyridin-3(1H)-one], for which the half-inhibitory concentration (IC50) stood at 10000 nM at hOX1R and 90 nM at human orexin-2 receptor.

`Cc1nc(-c2cc(F)ccc2C(=O)N2C[C@H](Oc3nccc4c3C(=O)OC4(C)C)CC[C@H]2C)no1` [Example 15, 4-{[(3R,6R)-1-{[4-fluoro-2-(5-methyl-1,2,4-oxadiazol-3-yl)phenyl]carbonyl}-6-methylpiperidin-3-yl]oxy}-1,1-dimethylfuro[3,4-c]pyridin-3(1H)-one]: the half-maximal inhibitory concentration (IC50) at hOX1R came to 10000 nM; on human orexin-2 receptor it was 232 nM.

Regarding `C[C@@H]1CC[C@@H](Nc2nccc3c2C(=O)OC3(C)C)CN1C(=O)c1ccccc1-n1nccn1` [Example 39, 1,1-Dimethyl-4-{[(3R,6R)-6-methyl-1-{[2-(2H-1,2,3-triazol-2-yl)phenyl]carbonyl}piperidin-3-yl]amino}furo[3,4-c]pyridin-3(1H)-one], the IC50 on hOX1R turned out to be 5880 nM; at human orexin-2 receptor, 49 nM.

Consider `C[C@@H]1CC[C@@H](Oc2nccc3c2C(=O)OC3(C)C)CN1C(=O)c1cc(F)ccc1-n1nccn1` [Example 4, 4-{[(3R,6R)-1-{[5-fluoro-2-(2H-1,2,3-triazol-2-yl)phenyl]carbonyl}-6-methylpiperidin-3-yl]oxy}-1,1-dimethylfuro[3,4-c]pyridin-3(1H)-one], for which the IC50 at hOX1R was found to be 10000 nM; on human orexin-2 receptor it was 23 nM.

Turning to `C[C@@H]1CC[C@@H](Oc2nccc3c2C(=O)OC3(C)C)CN1C(=O)c1cc(F)ccc1-c1ncccn1` [Example 24, 4-({(3R,6R)-1-[(5-fluoro-2-pyrimidin-2-ylphenyl)carbonyl]-6-methylpiperidin-3-yl}oxy)-1,1-dimethylfuro[3,4-c]pyridin-3(1H)-one], the half-inhibitory concentration (IC50) on hOX1R worked out at 10000 nM; on human orexin-2 receptor, 72 nM.

In the case of `C[C@@H]1CC[C@@H](Oc2nccc3c2C(=O)OC3(C)C)CN1C(=O)c1ccc(Cl)cc1-n1nccn1` [Example 9, 4-{[(3R,6R)-1-{[4-chloro-2-(2H-1,2,3-triazol-2-yl)phenyl]carbonyl}-6-methylpiperidin-3-yl]oxy}-1,1-dimethylfuro[3,4-c]pyridin-3(1H)-one], the IC50 on hOX1R came out at 3740 nM; on human orexin-2 receptor it was 54 nM.

As to `C[C@@H]1CC[C@@H](Oc2nccc3c2COC3=O)CN1C(=O)c1ccccc1-c1ncccn1` [Example 36, 4-({(3R,6R)-6-methyl-1-[(2-pyrimidin-2-ylphenyl)car-bonyl]piperidin-3-yl}oxy)furo[3,4-c]pyridin-1(3H)-one], the IC50 worked out at 3100 nM at hOX1R and 20 nM on human orexin-2 receptor.

Consider `C[C@@H]1CC[C@@H](Oc2nccc3c2C(=O)OC3(C)C)CN1C(=O)c1cc(Cl)ccc1-n1nccn1` [Example 3, 4-{[(3R,6R)-1-{[5-chloro-2-(2H-1,2,3-triazol-2-yl)phenyl]carbonyl}-6-methylpiperidin-3-yl]oxy}-1,1-dimethylfuro[3,4-c]pyridin-3(1H)-one], for which the IC50 was determined as 3740 nM at hOX1R and 42 nM at human orexin-2 receptor.

Turning to `C[C@@H]1CC[C@@H](Oc2nccc3c2C(=O)OC3(C)C)CN1C(=O)c1cccc(F)c1-n1nccn1` [Example 7, 4-{[(3R,6R)-1-{[3-fluoro-2-(2H-1,2,3-triazol-2-yl)phenyl]carbonyl}-6-methylpiperidin-3-yl]oxy}-1,1-dimethylfuro[3,4-c]pyridin-3(1H)-one], the IC50 is 10000 nM on hOX1R and 132 nM on human orexin-2 receptor.

Turning to `C[C@@H]1CC[C@@H](Oc2nccc3c2C(=O)OC3(C)C)CN1C(=O)c1ccc(F)cc1-n1nccn1` [Example 10, 4-{[(3R,6R)-1-{[4-fluoro-2-(2H-1,2,3-triazol-2-yl)phenyl]carbonyl}-6-methylpiperidin-3-yl]oxy}-1,1-dimethylfuro[3,4-c]pyridin-3(1H)-one], the IC50 turned out to be 10000 nM on hOX1R and 59 nM on human orexin-2 receptor.

For `C[C@@H]1CC[C@@H](Nc2nccc3c2C(=O)OC3(C)C)CN1C(=O)c1ccsc1-c1ncccn1` [Example 44, 1,1-Dimethyl-4-({(3R,6R)-6-methyl-1-[(2-pyrimidin-2-ylthiophen-3-yl)carbonyl]piperidin-3-yl}amino)furo[3,4-c]pyridin-3(1H)-one], the IC50 stood at 1000 nM on hOX1R and 28 nM on human orexin-2 receptor.

Consider `C[C@@H]1CC[C@@H](Oc2nccc3c2C(=O)OC3(C)C)CN1C(=O)c1ccsc1-n1nccn1` [Example 20, 1,1-Dimethyl-4-{[(3R,6R)-6-methyl-1-{[2-(2H-1,2,3-triazol-2-yl)thiophen-3-yl]carbonyl}piperidin-3-yl]oxy}furo[3,4-c]pyridin-3(1H)-one], for which the IC50 at hOX1R was 10000 nM; on human orexin-2 receptor, 39 nM.

On to `Cc1nc(-c2cccc(F)c2C(=O)N2C[C@H](Oc3nccc4c3C(=O)OC4(C)C)CC[C@H]2C)no1` [Example 13, 4-{[(3R,6R)-1-{[2-fluoro-6-(5-methyl-1,2,4-oxadiazol-3-yl)phenyl]carbonyl}-6-methylpiperidin-3-yl]oxy}-1,1-dimethylfuro[3,4-c]pyridin-3(1H)-one], for which the IC50 on hOX1R is no less than 10000 nM; on human orexin-2 receptor, 65 nM.
